Results published in patent EP1424337A1, “4-hydroxy derivatives of 5,6,9,10-tetrahydro-10-((2-methyl-1h-imidazol-1-yl)methyl)-4h-pyrido-(3,2,1-jk)-carbazol-11(8h)-one” (Solvay Pharmaceuticals GmbH, priority 2002, dated 2004).

Assays:
[1] = target: T1, 5-HT3 receptor (Cavia porcellus, UniProt O70212); experiment: 2-methyl-5-HT induced contractions in isolated guinea-pig ileal preparations (5-HT3 receptor antagonism, Schild plot); design: species or system guinea pigs; conditions: for effect on concentration response curve for 2-methyl-5-HT: bath application; for effect on concentration response curve for 2-methyl-5-HT / Kb: guinea-pig ileum; for Kb: agonist 2-methyl-5-HT 0.32 - 100 µM, bath concentrations 0.1 and 1 µM (Ib), 1 and 3 µM (Ic), 5-6 preparations, read-out: pA2 (converted)
T1 construct: lleal segments were isolated and mounted in an organ bath; from tissue; host or cells: isolated guinea-pig ileal segments (female, Pirbright White)
T1 sequence (O70212 20-490): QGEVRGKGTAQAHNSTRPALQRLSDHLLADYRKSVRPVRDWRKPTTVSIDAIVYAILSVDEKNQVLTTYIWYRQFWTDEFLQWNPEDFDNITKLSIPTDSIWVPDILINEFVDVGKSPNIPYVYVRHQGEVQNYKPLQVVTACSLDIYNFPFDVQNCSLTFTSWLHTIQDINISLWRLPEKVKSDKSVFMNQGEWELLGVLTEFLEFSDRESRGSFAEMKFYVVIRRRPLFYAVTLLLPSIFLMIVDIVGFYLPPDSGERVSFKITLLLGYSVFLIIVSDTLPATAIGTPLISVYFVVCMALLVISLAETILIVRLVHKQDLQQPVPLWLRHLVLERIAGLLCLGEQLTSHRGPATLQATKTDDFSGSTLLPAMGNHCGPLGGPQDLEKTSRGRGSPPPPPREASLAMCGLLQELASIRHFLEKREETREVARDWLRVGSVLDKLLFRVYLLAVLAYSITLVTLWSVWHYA
Text: 2. Effect of mammalian cilansetron 4-hydroxymetabolites from dog's urine of formulas Ib and Ic on 2-methyl-5-HT induced contractions in ileal preparations isolated from guinea pigs (5-HT3 receptor antagonism)
In this test method, the antagonistic potency of the mammalian cilansetron 4-hydroxymetabolites from dog's urine of formulas Ib and Ic was investigated by determining the shift of the concentration-response curve for the specific 5-HT3 receptor agonist 2-methyl-5-HT in preparations from the guinea-pig ileum.
Guinea-pigs (female, Pirbright White, about 300 g) were killed by a blow on the head and bled from the carotid arteries. lleal segments were isolated and mounted in an organ bath containing a salt solution continuously gassed with carbogen and kept at 37 °C. The composition of the solution in mM was 136.9 NaCl, 2.7 KCI, 1.77 CaCl2, 0.8 MgCl2, 0.6 NaH2PO4, 11.9 NaHCO3, and 5 glucose. The preparations were preloaded with 10 mN and allowed to equilibrate for 90 - 120 minutes (= min.). The concentration response curves for 2-methyl-5-HT (0.32 - 100 µM, by company Sigma) were constructed non-cumulatively to avoid desensitization. The measurement was made at the point of maximal contraction and the agonist was washed out as soon as peak response was reached. A first 2-methyl-5-HT curve was followed by another concentration response curve in the presence of one concentration of the antagonist. The response to the highest concentration of 2-methyl-5-HT obtained in the first concentration response curve was set to 100 %. For each compound at least two concentrations of the antagonist were tested in different sets. Data from 5-6 preparations were used for each concentration response curve. Schild plots were calculated and the pA2 value was determined. The pA2-value is the negative logarithm of the molar concentration of the antagonist which causes a rightward shift of the concentration response curve for the agonist by a factor of 2. The higher the pA2-value is, the higher is the potency of a compound.
All test compounds were initially dissolved in dimethylsulfoxide (= DMSO) at concentrations of 10^-2 mol/I and were further diluted with water. The final bath concentrations for the different compounds used were 0.1 and 1 µM for compound of formula Ib and 1 and 3 µM for compound of formula Ic. […]
In this test method, the 5-HT3 agonist 2-methyl-5-HT evoked dose-dependent contractions of the guinea-pig ileum with a pD2-value of 5.2. The pD2-value is the negative logarithm of the molar […].

[2] = target: T2, serotonin 5-HT3 receptor (Mus musculus, UniProt P23979); experiment: Radioligand binding assay with [3H]-GR-65630 on membranes of cell line N1E-115; design: species or system human; conditions: for Ki: competition with [^3H]-GR-65630 (0.35 nM), N1E-115 membranes, 20 mM HEPES pH 7.4, 150 mM NaCl, 25°C, 60 min, Cheng and Prusoff, read-out: Kl
T2 construct: the 5-HT3 receptor which was endogenously expressed in the human cell line N1E-115; endogenous in cells; host or cells: N1E-115 neuroblastoma cells (membrane suspensions)
T2 sequence (P23979 24-483 isoform P23979-2 limits assumed): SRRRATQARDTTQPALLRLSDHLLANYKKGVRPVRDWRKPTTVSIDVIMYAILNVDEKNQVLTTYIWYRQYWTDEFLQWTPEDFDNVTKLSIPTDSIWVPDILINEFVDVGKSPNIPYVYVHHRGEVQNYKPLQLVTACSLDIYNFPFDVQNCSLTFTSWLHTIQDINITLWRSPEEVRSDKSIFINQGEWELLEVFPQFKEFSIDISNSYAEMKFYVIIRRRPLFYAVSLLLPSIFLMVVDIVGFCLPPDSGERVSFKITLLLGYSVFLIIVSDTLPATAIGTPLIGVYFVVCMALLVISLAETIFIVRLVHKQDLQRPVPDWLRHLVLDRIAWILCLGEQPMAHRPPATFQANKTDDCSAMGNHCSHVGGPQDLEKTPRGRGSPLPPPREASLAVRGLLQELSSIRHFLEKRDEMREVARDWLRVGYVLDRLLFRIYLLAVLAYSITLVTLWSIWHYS
Protocol: 1. Affinity of 4-hydroxy derivatives of 5,6,9,10-tetrahydro-10-[(2-methyl-1H-imidazol-1-yl)methyl]-4H pyrido-[3,2,1-jk]-carbazol-11(8H)-one of formulas Ib - le for the human serotonin 5-HT3 receptor
In this test method, the ability of the 4-hydroxy derivatives of 5,6,9,10-tetrahydro-10-[(2-methyl-1H-imidazol-1-yl)methyl]-4H-pyrido-[3,2,1-jk]-carbazol-11(8H)-one of formulas Ib - le was assessed, for binding to the 5-HT3 receptor which was endogenously expressed in the human cell line N1E-115 and using tritiated GR-65630 as a radioligand.
The binding assays were carried out using the method of Hoyer and Neijt (see Hoyer, D., Neijt H.C., Mol. Pharmacol. 33, (1988) 303-309). Tritiated GR-65630 was used as radioligand and membrane suspensions, prepared in a known manner from the human neuroblastoma cell line N1E-115. Compounds have been tested for binding in various concentrations to compete with [^3H]-GR-65630 (0.35 nM final concentration) in 20 mM HEPES pH 7.4, containing 150 mM NaCl at 25°C for 60 min. Thereafter, the membranes were filtrated over glass fiber filters and bound radioactivity was counted by liquid scintillation counting. Each concentration was tested in triplicate, nonspecific binding was assessed by incubation with the reference compound MDL-72222 (1 µM).
Plotting the amount of bound radioactivity against the concentration of the competing compound allowed estimation of an IC50 value, i.e. that concentration at which 50% of the control radioligand binding remains. […]

Structure (SMILES)	Ki [2]	effect on concentration response curve for 2-methyl-5-HT [1]	Kb [1]	further results
Cc1[nH]c2ccc(O)cc2c1CCN [2-methyl-5-HT, reference compound]				EC50 ([1]; agonist-evoked dose-dependent contractions of the guinea-pig ileum, read-out: pD2-value (converted)): 6310 nM
Cc1nccn1C[C@H]1CCc2c(c3cccc4c3n2CC[C@@H]4O)C1=O [Ib]	3 nM	dose-dependent shift of the concentration response curve to the right	186 nM	
Cc1nccn1C[C@H]1CCc2c(c3cccc4c3n2CC[C@H]4O)C1=O [Ic]	10 nM	dose-dependent shift of the concentration response curve to the right	355 nM	
Cc1nccn1C[C@@H]1CCc2c(c3cccc4c3n2CC[C@@H]4O)C1=O [Id]	8.8 nM			
Cc1[nH]cnc1CCC(=O)c1cn(C)c2ccccc12 [[^3H]-GR-65630, reference compound]				Kd ([2]; radioligand, established separately, read-out: Kd, the affinity constant for [^3H]-GR-65630): 0.33 nM
Cc1nccn1C[C@@H]1CCc2c(c3cccc4c3n2CC[C@H]4O)C1=O [le]	38 nM			
